In test [1] the target is T1, Adenylate cyclase type 2 (Homo sapiens, UniProt Q08462). The test is described as follows: Agonist activity at recombinant human AC2 expressed in HEK293 cells assessed as increase in cAMP level by measuring cAMP level at 50 uM measured after 30 mins by LANCE Ultra cAMP Detection kit method relative to control. It counts as cell-based. A general note: Changes in cAMP serve as a functional read-out for many G protein-coupled receptors.

The target of test [2] is T1, Adenylate cyclase type 2. The experiment in a line: Agonist activity at recombinant human AC2 expressed in HEK293 cells assessed as increase in cAMP level measured after 30 mins by LANCE Ultra cAMP Detection kit method. In kind it is cell-based.

T1 sequence (Q08462 whole entry): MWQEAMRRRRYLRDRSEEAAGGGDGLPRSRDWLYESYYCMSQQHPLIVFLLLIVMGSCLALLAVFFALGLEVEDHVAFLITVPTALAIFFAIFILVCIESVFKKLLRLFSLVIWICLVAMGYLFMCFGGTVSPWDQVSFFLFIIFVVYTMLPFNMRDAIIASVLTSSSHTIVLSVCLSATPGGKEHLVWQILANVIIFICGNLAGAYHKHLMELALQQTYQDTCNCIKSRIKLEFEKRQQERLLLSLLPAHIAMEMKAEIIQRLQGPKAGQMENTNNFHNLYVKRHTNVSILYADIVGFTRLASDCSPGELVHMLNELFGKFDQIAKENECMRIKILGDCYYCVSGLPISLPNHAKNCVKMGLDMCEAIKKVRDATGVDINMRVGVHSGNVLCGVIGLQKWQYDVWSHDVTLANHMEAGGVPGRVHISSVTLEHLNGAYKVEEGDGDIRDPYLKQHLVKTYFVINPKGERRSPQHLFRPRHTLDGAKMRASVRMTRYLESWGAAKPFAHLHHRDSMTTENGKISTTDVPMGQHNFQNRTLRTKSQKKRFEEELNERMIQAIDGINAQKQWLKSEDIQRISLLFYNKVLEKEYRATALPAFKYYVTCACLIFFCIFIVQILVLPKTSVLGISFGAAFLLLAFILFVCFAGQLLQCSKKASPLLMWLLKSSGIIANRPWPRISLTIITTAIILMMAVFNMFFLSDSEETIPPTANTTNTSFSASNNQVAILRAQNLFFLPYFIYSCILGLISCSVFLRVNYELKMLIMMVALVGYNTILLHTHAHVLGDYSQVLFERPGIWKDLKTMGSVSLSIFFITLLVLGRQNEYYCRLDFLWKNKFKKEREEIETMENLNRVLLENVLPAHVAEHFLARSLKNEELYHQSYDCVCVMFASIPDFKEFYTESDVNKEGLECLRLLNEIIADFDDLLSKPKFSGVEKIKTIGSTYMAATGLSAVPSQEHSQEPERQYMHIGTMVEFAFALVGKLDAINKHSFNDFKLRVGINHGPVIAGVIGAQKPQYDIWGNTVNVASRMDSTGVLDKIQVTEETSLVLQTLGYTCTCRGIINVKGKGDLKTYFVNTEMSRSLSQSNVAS

Consider `O=C1[C@H]2[C@@H](c3ccc(-c4ccccc4)cc3)OC3(C(=O)c4ccccc4C3=O)[C@H]2C(=O)N1c1ccccc1Cl`, for which, on Adenylate cyclase type 2 [1], the Activity is 5.04%.
Broadly, the EC50 is the concentration giving half of the maximal effect. Take `Cc1ccc(N2C(=O)[C@H]3[C@@H](c4cccc(Cl)c4)OC4(C(=O)c5ccccc5C4=O)[C@H]3C2=O)cc1`: the EC50 on Adenylate cyclase type 2 [2] was determined as 5.05 µM. In addition, at Adenylate cyclase type 2 [1] (filed as agonist), the Activity was determined as 97.9%.
For `O=C1[C@H]2[C@@H](c3ccccc3)OC3(C(=O)c4ccccc4C3=O)[C@H]2C(=O)N1c1ccc(Cl)cc1`, at Adenylate cyclase type 2 [2], the EC50 came to 2.06 µM. The Activity at Adenylate cyclase type 2 [1] (filed as agonist) is 91.5%.
For the compound `O=C1[C@H]2[C@@H](CCc3ccccc3)OC3(C(=O)c4ccccc4C3=O)[C@H]2C(=O)N1c1ccccc1Cl`, on Adenylate cyclase type 2 [1], the Activity worked out at 32%.
As to `CCc1ccc(N2C(=O)[C@H]3[C@@H](c4ccc(Cl)cc4)OC4(C(=O)c5ccccc5C4=O)[C@H]3C2=O)cc1`, at Adenylate cyclase type 2 [2], the EC50 was found to be 0.43 µM. Further, at Adenylate cyclase type 2 [1] (filed as agonist), the Activity came out at 102%.
In the same order, the values of `Cc1ccc([C@H]2OC3(C(=O)c4ccccc4C3=O)[C@H]3C(=O)N(C(C)C)C(=O)[C@@H]23)cc1` are 7.34 µM and 59%.
On to `O=C1[C@H]2[C@@H](C3CCCCC3)OC3(C(=O)c4ccccc4C3=O)[C@H]2C(=O)N1c1ccccc1Cl`, for which the Activity at Adenylate cyclase type 2 [1] (filed as agonist) stood at 55.6%.
Turning to `CC[C@H]1OC2(C(=O)c3ccccc3C2=O)[C@H]2C(=O)N(c3ccccc3Cl)C(=O)[C@@H]12`, the Activity at Adenylate cyclase type 2 [1] is 0%.
On the same count and under the same terms, the result for `Cc1ccccc1[C@H]1OC2(C(=O)c3ccccc3C2=O)[C@H]2C(=O)N(c3ccccc3Cl)C(=O)[C@@H]12` reads 30.7%.
Consider `COc1ccc(OC)c(N2C(=O)[C@H]3[C@@H](c4ccc(C)cc4)OC4(C(=O)c5ccccc5C4=O)[C@H]3C2=O)c1`, for which, at Adenylate cyclase type 2 [2], the EC50 amounted to 1.2 µM. For the same compound, at Adenylate cyclase type 2 [1] (filed as agonist), the Activity came out at 103%.
On to `CC/C=C(\CCC)[C@H]1OC2(C(=O)c3ccccc3C2=O)[C@H]2C(=O)N(c3ccccc3Cl)C(=O)[C@@H]12`, for which, on Adenylate cyclase type 2 [1] (filed as agonist), the Activity stood at 44.5%.
In the case of `CCOc1ccc([C@H]2OC3(C(=O)c4ccccc4C3=O)[C@H]3C(=O)N(c4ccc(C)cc4)C(=O)[C@@H]23)cc1`, the EC50 at Adenylate cyclase type 2 [2] was found to be 24.8 µM. Further, on Adenylate cyclase type 2 [1] (filed as agonist), the Activity was determined as 100%.
In the case of `Cc1ccc([C@H]2OC3(C(=O)c4ccccc4C3=O)[C@H]3C(=O)N(CC(C)C)C(=O)[C@@H]23)cc1`, on Adenylate cyclase type 2 [1] (filed as agonist), the Activity stood at 56.7%.
For `Cc1ccc([C@H]2OC3(C(=O)c4ccccc4C3=O)[C@H]3C(=O)N(C(C)(C)C)C(=O)[C@@H]23)cc1`, on Adenylate cyclase type 2 [1], the Activity is 31%.
As for `O=C1[C@H]2[C@@H](Cc3ccccc3)OC3(C(=O)c4ccccc4C3=O)[C@H]2C(=O)N1c1ccccc1Cl`, at Adenylate cyclase type 2 [1], the Activity is 0%.
Take `CC(C)[C@H]1OC2(C(=O)c3ccccc3C2=O)[C@H]2C(=O)N(c3ccccc3Cl)C(=O)[C@@H]12`: the Activity at Adenylate cyclase type 2 [1] amounted to 27.2%.
For the compound `CC(C)=C[C@H]1OC2(C(=O)c3ccccc3C2=O)[C@H]2C(=O)N(c3ccccc3Cl)C(=O)[C@@H]12`, at Adenylate cyclase type 2 [1] (filed as agonist), the Activity is 44.7%.
Still for that read-out and setting: under `Cc1cccc([C@H]2OC3(C(=O)c4ccccc4C3=O)[C@H]3C(=O)N(c4cccc(C)c4)C(=O)[C@@H]23)c1` stands 84.7%.
With `Cc1ccc([C@H]2OC3(C(=O)c4ccccc4C3=O)[C@H]3C(=O)N(C4CCC4)C(=O)[C@@H]23)cc1`, the Activity on Adenylate cyclase type 2 [1] stood at 0%.
On the same count and under the same terms, under `CCc1ccccc1N1C(=O)[C@H]2[C@@H](c3ccccc3Cl)OC3(C(=O)c4ccccc4C3=O)[C@H]2C1=O` stands 20%.
Consider `Cc1ccc(N2C(=O)[C@H]3[C@@H](c4ccccc4)OC4(C(=O)c5ccccc5C4=O)[C@H]3C2=O)cc1Cl`, for which the Activity on Adenylate cyclase type 2 [1] (filed as agonist) came to 80.3%.
`COc1ccc([C@H]2OC3(C(=O)c4ccccc4C3=O)[C@H]3C(=O)N(c4ccccc4F)C(=O)[C@@H]23)cc1`: the Activity on Adenylate cyclase type 2 [1] was 0.25%.
Still for that read-out and setting: under `O=C1[C@H]2[C@@H](C3CC3)OC3(C(=O)c4ccccc4C3=O)[C@H]2C(=O)N1c1ccccc1Cl` stands 0%; under `O=C1[C@H]2[C@@H](c3ccc4ccccc4c3)OC3(C(=O)c4ccccc4C3=O)[C@H]2C(=O)N1c1ccccc1Cl`, 0%.
Same read-out and setting: the result for `Cc1cc(C)cc(N2C(=O)[C@H]3[C@@H](c4ccccc4Cl)OC4(C(=O)c5ccccc5C4=O)[C@H]3C2=O)c1` reads 7.14%.

The values above are taken from ChEMBL document CHEMBL4680207, “The discovery, design and synthesis of potent agonists of adenylyl cyclase type 2 by virtual screening combining biological evaluation” (Eur J Med Chem, 2020).
